# Results published in US5126337A, “Thiazetoquinoline-3-carboxylic acid derivative and a pharmaceutical composition comprising the same” (priority 1989, dated 1992).
# Key:
# [1] = tested on: Acinetobacter calcoaceticus HNR 904; assay: Antibacterial spectrum, MIC by twofold agar dilution method; assay type: cell-based; conditions: HNR904, 10^6 cfu/ml, clinically isolated strain, Gram -, 18 hrs at 37° C
# Procedure: (§1) Overnight cultures in Mueller-Hinton broth were suspended by buffered saline gelatin. One loopful of the bacterial suspension (10^6 or 10^8 colony-forming units/ml) was incubated onto the plates containing test compounds. The plates were incubated for 18 hrs at 37° C. The MIC was defined by the lowest concentration of the drug that inhibited visible growth of bacteria.
# [2] = tested on: Acinetobacter calcoaceticus HNR 916; assay: as above; assay type: cell-based; conditions: HNR916, 10^6 cfu/ml, clinically isolated strain, Gram -, 18 hrs at 37° C
# Procedure: as §1
# [3] = tested on: Acinetobacter calcoaceticus HNR 939; assay: as above; assay type: cell-based; conditions: HNR939, 10^6 cfu/ml, clinically isolated strain, Gram -, 18 hrs at 37° C
# Procedure: as §1
# Enterobacter cloacae 963 = assay: as above; assay type: cell-based; conditions: 10^6 cfu/ml, standard laboratory strain, Gram -, 18 hrs at 37° C
# Procedure: as §1
# [4] = tested on: Enterobacter cloacae HNR 1939; assay: as above; assay type: cell-based; conditions: HNR1939, 10^6 cfu/ml, clinically isolated strain, Gram -, 18 hrs at 37° C
# Procedure: as §1
# [5] = tested on: Enterobacter cloacae HNR 1941; assay: as above; assay type: cell-based; conditions: HNR1941, 10^6 cfu/ml, clinically isolated strain, Gram -, 18 hrs at 37° C
# Procedure: as §1
# [6] = tested on: Enterobacter cloacae HNR 1946; assay: as above; assay type: cell-based; conditions: HNR1946, 10^6 cfu/ml, clinically isolated strain, Gram -, 18 hrs at 37° C
# Procedure: as §1
# [7] = tested on: Enterococcus faecalis HPC 948; assay: as above; assay type: cell-based; conditions: HPC948, 10^6 cfu/ml, clinically isolated strain, Gram +, 18 hrs at 37° C
# Procedure: as §1
# [8] = tested on: Enterococcus faecalis HPC 975; assay: as above; assay type: cell-based; conditions: HPC975, 10^6 cfu/ml, clinically isolated strain, Gram +, 18 hrs at 37° C
# Procedure: as §1
# [9] = tested on: Enterococcus faecalis HPC 984; assay: as above; assay type: cell-based; conditions: HPC984, 10^6 cfu/ml, clinically isolated strain, Gram +, 18 hrs at 37° C
# Procedure: as §1
# [10] = tested on: Escherichia coli NIHJ JC-2; assay: as above; assay type: cell-based; conditions: NIHJJC2, 10^6 cfu/ml, standard laboratory strain, Gram -, 18 hrs at 37° C
# Procedure: as §1
# [11] = tested on: Klebsiella pneumoniae HNR 828; assay: as above; assay type: cell-based; conditions: HNR828, 10^6 cfu/ml, clinically isolated strain, Gram -, 18 hrs at 37° C
# Procedure: as §1
# [12] = tested on: Klebsiella pneumoniae HNR 858; assay: as above; assay type: cell-based; conditions: HNR858, 10^6 cfu/ml, clinically isolated strain, Gram -, 18 hrs at 37° C
# Procedure: as §1
# [13] = tested on: Klebsiella pneumoniae HNR 869; assay: as above; assay type: cell-based; conditions: HNR869, 10^6 cfu/ml, clinically isolated strain, Gram -, 18 hrs at 37° C
# Procedure: as §1
# [14] = tested on: Pseudomonas aeruginosa HNR 1489; assay: as above; assay type: cell-based; conditions: HNR1489, 10^6 cfu/ml, clinically isolated strain, Gram -, 18 hrs at 37° C
# Procedure: as §1
# [15] = tested on: Pseudomonas aeruginosa HNR 1537; assay: as above; assay type: cell-based; conditions: HNR1537, 10^6 cfu/ml, clinically isolated strain, Gram -, 18 hrs at 37° C
# Procedure: as §1
# [16] = tested on: Pseudomonas aeruginosa IFO 3445; assay: as above; assay type: cell-based; conditions: IFO3445, 10^6 cfu/ml, standard laboratory strain, Gram -, 18 hrs at 37° C
# Procedure: as §1
# [17] = tested on: Serratia marcescens HNR 1544; assay: as above; assay type: cell-based; conditions: HNR1544, 10^6 cfu/ml, clinically isolated strain, Gram -, 18 hrs at 37° C
# Procedure: as §1
# [18] = tested on: Serratia marcescens HNR 1767; assay: as above; assay type: cell-based; conditions: HNR1767, 10^6 cfu/ml, clinically isolated strain, Gram -, 18 hrs at 37° C
# Procedure: as §1
# [19] = tested on: Serratia marcescens HNR 1792; assay: as above; assay type: cell-based; conditions: HNR1792, 10^6 cfu/ml, clinically isolated strain, Gram -, 18 hrs at 37° C
# Procedure: as §1
# [20] = tested on: Serratia marcescens IAM 1184; assay: as above; assay type: cell-based; conditions: IAM1184, 10^6 cfu/ml, standard laboratory strain, Gram -, 18 hrs at 37° C
# Procedure: as §1
# [21] = tested on: Staphylococcuss aureus HPC 292; assay: as above; assay type: cell-based; conditions: 10^6 cfu/ml; clinically isolated strain, Gram +; 18 hrs at 37° C; read-out: MIC
# Procedure: as §1
# [22] = tested on: Staphylococcuss aureus HPC 527; assay: as above; assay type: cell-based; conditions: 10^6 cfu/ml; clinically isolated strain, Gram +; 18 hrs at 37° C
# Procedure: as §1
# [23] = tested on: Staphylococuss aureus FDA 209PJC-1; assay: as above; assay type: cell-based; conditions: 10^6 cfu/ml; standard laboratory strain, Gram +; 18 hrs at 37° C
# Procedure: as §1
# Male mice of ddY strain = assay: Convulsion inducing activity in combination with fenbufen; conditions: 30 min after fenbufen 100 mg/kg orally
# Procedure: Male mice of ddY strain, 5 weeks old, were used. Fenbufen suspended in 0.5% carboxymethyl cellulose was administered orally at a dose of 100 mg/kg. After thirty minutes, test compounds suspended in 0.5% carboxymethyl cellulose were injected intraperitoneally (i.p.) at a dose of 100 mg/kg or 300 mg/kg.
# [24] = tested on: Pseudomonas aeruginosa HNR 1472; assay: Antibacterial spectrum, MIC by twofold agar dilution method; assay type: cell-based; conditions: HNR1472, 10^6 cfu/ml, clinically isolated strain, Gram -, 18 hrs at 37° C
# Procedure: as §1
# [25] = tested on: Klebsiella pneumoniae PCI-602; assay: as above; assay type: cell-based; conditions: PCI602, 10^6 cfu/ml, standard laboratory strain, Gram -, 18 hrs at 37° C, read-out: MIC
# Procedure: as §1, with “Minimum inhibitory concentrations (MIC) of test compounds were determined by the twofold agar dilution method (Chemotherapy, 29(1), 76(1981)). Overnight” for “Overnight”
# [26] = tested on: Staphylococcuss aureus HPC 308; assay: as above; assay type: cell-based; conditions: 10^6 cfu/ml; clinically isolated strain, Gram +; 18 hrs at 37° C
# Procedure: as §1
MIC [2],MIC [3],MIC (Enterobacter cloacae 963),MIC [4],MIC [5],MIC [6],MIC [7],MIC [8],MIC [9],MIC [10],MIC [11],MIC [12],MIC [13],MIC [14],MIC [15],MIC [16],MIC [17],MIC [18],MIC [20],MIC [21],SMILES,also measured
0.2 µg/mL,1.56 µg/mL,0.05 µg/mL,0.2 µg/mL,3.13 µg/mL,0.2 µg/mL,0.78 µg/mL,6.25 µg/mL,0.2 µg/mL,0.025 µg/mL,3.13 µg/mL,0.2 µg/mL,0.78 µg/mL,0.2 µg/mL,12.5 µg/mL,0.1 µg/mL,0.05 µg/mL,12.5 µg/mL,0.1 µg/mL,6.25 µg/mL,"CC1Sc2c(C(=O)O)c(=O)c3cc(F)c(N4CCC(N)C4)c(F)c3n21 (stereo not shown) [Example 33, 7-(3-amino-1-pyrrolidinyl)-6,8-difluoro-1-methyl-4-oxo-1H,4H-[1,3] thiazeto[3,2-a]quinoline-3-carboxylic acid]",MIC [1]: 25 µg/mL; MIC [19]: 1.56 µg/mL; MIC [22]: 0.05 µg/mL; MIC [23]: 0.025 µg/mL; Number of convulsion induced/Number of animals (Male mice of ddY strain; 100 mg/kg (i.p.)): 0/6; Number of convulsion induced/Number of animals (Male mice of ddY strain; 300 mg/kg (i.p.)): 0/6
0.1 µg/mL,1.56 µg/mL,0.025 µg/mL,0.2 µg/mL,1.56 µg/mL,0.2 µg/mL,0.78 µg/mL,12.5 µg/mL,0.2 µg/mL,0.025 µg/mL,3.13 µg/mL,0.2 µg/mL,0.78 µg/mL,0.2 µg/mL,3.13 µg/mL,0.1 µg/mL,0.05 µg/mL,6.25 µg/mL,0.05 µg/mL,6.25 µg/mL,"CC1Sc2c(C(=O)O)c(=O)c3cc(F)c(N4CCC(N)C4)c(Cl)c3n21 (stereo not shown) [Example 34, 7-(3-Amino-1-pyrrolidinyl)-8-chloro-6-fluoro-1-methyl-4-oxo-1H,4H-[1,3]thiazeto[3,2-a]quinoline-3-carboxylic acid]",MIC [24]: 3.13 µg/mL; MIC [22]: 0.05 µg/mL; MIC [23]: 0.05 µg/mL; MIC [25]: 0.012 µg/mL; Number of convulsion induced/Number of animals (Male mice of ddY strain; 100 mg/kg (i.p.)): 0/6; Number of convulsion induced/Number of animals (Male mice of ddY strain; 300 mg/kg (i.p.)): 0/6
0.1 µg/mL,1.56 µg/mL,0.1 µg/mL,0.39 µg/mL,6.25 µg/mL,0.39 µg/mL,1.56 µg/mL,12.5 µg/mL,0.39 µg/mL,0.1 µg/mL,6.25 µg/mL,0.39 µg/mL,1.56 µg/mL,0.78 µg/mL,25 µg/mL,0.78 µg/mL,0.1 µg/mL,12.5 µg/mL,0.2 µg/mL,12.5 µg/mL,"CC1Sc2c(C(=O)O)c(=O)c3cc(F)c(N4CC[C@H](N(C)C)C4)c(Cl)c3n21 (stereo partly drawn) [Example 35, 8-Chloro-7-((S)-3-dimethylamino-1-pyrrolidinyl)-6-fluoro-1-methyl-4-oxo-1H,4H-[1,3]thiazeto[3,2-a]quinoline-3-carboxylic acid]",MIC [1]: 3.13 µg/mL; MIC [24]: 12.5 µg/mL; MIC [19]: 3.13 µg/mL; MIC [26]: 0.78 µg/mL; MIC [22]: 0.1 µg/mL; MIC [23]: 0.1 µg/mL; MIC [25]: 0.05 µg/mL
